Test results published in patent publication US6838580B2, “Opioid derivative” (Teikoku Seiyaku Co., Ltd., priority 2002, dated 2005).
Entries after “also recorded” stand apart in the source; their conditions may differ. Marks after values point to notes of the source that are not given here.

Key:
[1] = system: SD Male rats; assay: Analgesic effect, Randoll-Seritto hind limb pressure method, intravenous administration; assay type: in vivo; settings: rat, i.v.
Method: (§1) SD Male rats, weighing 110 to 130 g, were used. One group consisted of five rats. The analgesic effects were examined by a Randoll-Seritto method. […] The threshold was expressed in mm Hg. During the measurement, the upper limit of the pressure applied to a hind limb was 100 mm Hg in order to avoid damage of the tissues.
(§2) 2) When administered intravenously (i.v.), a volume of 2 ml/kg weight was administered to a tail vein and, when administered subcutaneously (s.c.), a volume of 2 ml/kg weight was subcutaneously administered to the back. In the case of intravenous administration, a 1 mg/kg, 3 mg/kg or 10 mg/kg compound of Ex.1 administration group, a 1 mg/kg, 3 mg/kg or 10 mg/kg compound of Ex.4 administration group, a 2 ml/kg physiological saline administration group and a 5 mg/kg morphine hydrochloride administration group were made, respectively. In the case of subcutaneous administration, a 10 mg/kg, 30 mg/kg or 100 mg/kg compound of Ex.1 administration group, a 10 mg/kg, 30 mg/kg or 100 mg/kg compound of Ex.4 administration group, a 2 ml/kg physiological saline administration group and a 5 mg/kg morphine hydrochloride administration group were made, respectively. Observation of the analgesic action was performed 15 minutes, 30 minutes, 1 hour and 2 hours after administration in the case of intravenous administration, 30 minutes, 1 hour, 2 hours and 3 hours after administration in the case of subcutaneous administration, respectively.
(§3) In order to perform a significant difference test between respective administration groups and control groups, and between values at respective times before administration and after administration, a Dunnet multiple comparative test method was used. In the statistical processing for performing a significant difference test between morphine hydrochloride administration groups and control groups, Student t-test was used. For performing a significant difference test between values at respective times before administration and after administration in morphine hydrochloride administration groups, a Dunnet multiple comparative test method was used. A significant level was at 5 or lower % risk rate (two-tailed test).

[2] = system: SD Male rats; assay: Analgesic effect, Randoll-Seritto hind limb pressure method, subcutaneous administration; assay type: in vivo; settings: rat, s.c.
Method: as §1, §2, §3

[3] = target: μ-opioid receptor (Cavia porcellus, UniProt A0ACM8Q262); assay: Guinea pig ileum (GPI) assay, inhibition of electrically stimulated constriction; assay type: cell-based; settings: agonist activity, read-out: GPI (IC50 ± S.E.)
Sequence of μ-opioid receptor (A0ACM8Q262 1-400): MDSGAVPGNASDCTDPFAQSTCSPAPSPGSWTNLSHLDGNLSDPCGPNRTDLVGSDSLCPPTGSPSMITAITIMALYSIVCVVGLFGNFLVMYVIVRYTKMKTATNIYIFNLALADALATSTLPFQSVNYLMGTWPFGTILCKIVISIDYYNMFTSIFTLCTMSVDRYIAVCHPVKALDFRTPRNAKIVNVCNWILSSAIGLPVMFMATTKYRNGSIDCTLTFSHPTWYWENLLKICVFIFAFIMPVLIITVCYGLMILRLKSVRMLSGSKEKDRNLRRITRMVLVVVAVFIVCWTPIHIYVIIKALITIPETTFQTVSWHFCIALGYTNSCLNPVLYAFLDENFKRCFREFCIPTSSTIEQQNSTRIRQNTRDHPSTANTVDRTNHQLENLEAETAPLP
Method: An assay test for agonist and antagonist activities of opioid compounds was performed using guinea pig ileum (GPI) and mouse seminiferous tract (MVD). That is, male guinea pigs having the weight of around 300 g were killed by exsanguination, an ileum section having a length of around 10 cm was isolated from an ileum close to an ileum-caecum region was held at 36° C. The ileum section was placed in a Magnus tube treated with an oxygen mixture (95% O2/5% CO2) and filled with Krebs solution in the state where the rest tension of 1 g was applied with an isotonic transducer and, then, was performed. Then, the electrical stimulation was applied at 30V for 0.5 ms. via electrode previously installed in the Magnus tube to constrict guinea pig ileum longitudinal muscle and, after constriction was stabilized, a peptidase inhibitor was added. Then, the present peptide derivative to be tested was added, the constriction of guinea pig ileum longitudinal muscle was taken by GrassFTO 0.3 transducer and monitored by an amplifier and a recorder connected to the transducer. The opioid activity was determined by constriction inhibition after addition of the peptide derivative to be tested and constriction inhibition cancellation by addition of naloxone, a selective opioid antagonist. […]

[4] = 10 mg/kg, before administration
[5] = 30 mg/kg, before administration
[6] = 100 mg/kg, before administration

Structure (SMILES) | Threshold (mmHg) ([1]; 3 mg/kg, 0.25 hr) | Threshold (mmHg) ([1]; 3 mg/kg, 0.5 hr) | Threshold (mmHg) ([1]; 3 mg/kg, 1 hr) | Threshold (mmHg) ([1]; 3 mg/kg, 2 hr) | Threshold (mmHg) ([1]; 3 mg/kg, before administration) | Threshold (mmHg) ([1]; 10 mg/kg, 0.25 hr) | Threshold (mmHg) ([1]; 10 mg/kg, 0.5 hr) | Threshold (mmHg) ([1]; 10 mg/kg, 1 hr) | Threshold (mmHg) ([1]; 10 mg/kg, 2 hr) | Threshold (mmHg) [1, 4] [mmHg] | Change in escape reaction threshold / analgesic effect, in words ([2]; 10 mg/kg) | Threshold (mmHg) ([2]; 10 mg/kg, 0.5 hr) | Threshold (mmHg) ([2]; 10 mg/kg, 1 hr) | Threshold (mmHg) ([2]; 10 mg/kg, 2 hr) | Threshold (mmHg) ([2]; 10 mg/kg, 3 hr) | Threshold (mmHg) [2, 4] [mmHg] | Change in escape reaction threshold / analgesic effect, in words ([2]; 30 mg/kg) | Threshold (mmHg) ([2]; 30 mg/kg, 0.5 hr) | Threshold (mmHg) ([2]; 30 mg/kg, 1 hr) | Threshold (mmHg) ([2]; 30 mg/kg, 2 hr) | further results
Cc1cc(O)cc(C)c1C[C@H](N)C(=O)NCCCCCCNC(=O)[C@@H](N)Cc1c(C)cc(O)cc1C [Ex.4, 1,6-Bis(Dmt-amino)hexane.2HCl] | 57 ± 4 | 54 ± 3 | 54 ± 5 | 53 ± 3 | 48 ± 2 | 54 ± 3 mmHg | 53 ± 3 | 57 ± 2 | 52 ± 2 | 49 ± 2 | tendency of a slight increase in the threshold was seen | 58 ± 3 | 58 ± 5 | 55 ± 5 | 53 ± 1 | 47 ± 2 | significant increase was seen 2 hours after administration; also recorded: exhibited the significant analgesic effect 2 hours after administration | 59 ± 3 | 56 ± 3 mmHg | 65 ± 5^$$ mmHg | Change in escape reaction threshold / analgesic effect, in words ([1]; all doses (1, 3, 10 mg/kg)): significant change in the threshold was not seen at any measuring time at any dose; also recorded: no analgesic effect was seen; Analgesic effect compared with compound of Ex.1, in words [2]: weaker and has a shorter duration time than in compound of Ex.1; Threshold (mmHg) ([2]; 30 mg/kg, 3 hr): 59 ± 4 mmHg; Threshold (mmHg) [2, 5]: 47 ± 2 mmHg; Change in escape reaction threshold / analgesic effect, in words ([2]; 100 mg/kg): significant difference was seen in the measured values 30 minutes, 1 hour and 2 hours after administration; also recorded: significant analgesic effect was exhibited from 30 minutes after administration; Threshold (mmHg) ([2]; 100 mg/kg, 0.5 hr): 69 ± 6**^,$$ mmHg; Threshold (mmHg) ([2]; 100 mg/kg, 1 hr): 68 ± 3*^,$ mmHg; Threshold (mmHg) ([2]; 100 mg/kg, 2 hr): 75 ± 8**^,$$ mmHg; Threshold (mmHg) ([2]; 100 mg/kg, 3 hr): 58 ± 2 mmHg; Threshold (mmHg) [2, 6]: 48 ± 2 mmHg
Cc1cc(O)cc(C)c1C[C@H](N)C(=O)NCCCCNC(=O)[C@@H](N)Cc1c(C)cc(O)cc1C.Cl.Cl [Ex.1, 1,4-Bis-(Dmt-amino)butane.2HCl] | 55 ± 2 | 56 ± 3 | 52 ± 4 | 49 ± 2 | 48 ± 2 | 60 ± 2**^,$$ mmHg | 56 ± 3 | 54 ± 2 | 53 ± 2 | 48 ± 2 | tendency of an increase in the threshold was seen; also recorded: exhibited the significant analgesic effect as compared with control groups | 55 ± 5 | 62 ± 6 | 58 ± 3 | 57 ± 2 | 47 ± 2 | significant increase in the threshold was seen 1 hour and 2 hours after administration | 52 ± 4 | 65 ± 5^$$ mmHg | 68 ± 3**^,$$ mmHg | Threshold (mmHg) ([1]; 1 mg/kg, before administration): 48 ± 2 mmHg; Change in escape reaction threshold / analgesic effect, in words ([1]; 10 mg/kg): significant increase in the threshold was seen 15 minutes after administration; also recorded: exhibited an analgesic effect but is weaker as compared with the case of morphine 10 mg/kg administration and its duration time was shorter; IC50 [3]: 5.33 ± 0.65 nM; Threshold (mmHg) ([2]; 30 mg/kg, 3 hr): 59 ± 4 mmHg; Threshold (mmHg) [2, 5]: 47 ± 2 mmHg; Change in escape reaction threshold / analgesic effect, in words ([2]; 100 mg/kg): significant increase was seen at any measuring time after administration; also recorded: approximately comparative to the effect by morphine 5 mg/kg subcutaneous administration; Threshold (mmHg) ([2]; 100 mg/kg, 0.5 hr): 86 ± 2**^,$$ mmHg; Threshold (mmHg) ([2]; 100 mg/kg, 1 hr): 77 ± 2**^,$$ mmHg; Threshold (mmHg) ([2]; 100 mg/kg, 2 hr): 77 ± 2**^,$$ mmHg; Threshold (mmHg) ([2]; 100 mg/kg, 3 hr): 70 ± 3**^,$$ mmHg; Threshold (mmHg) [2, 6]: 47 ± 2 mmHg
